Reference: patent US20080287398A1, “COLD MENTHOL RECEPTOR-1 ANTAGONISTS” (priority 2007, published 2008)

Columns and labels:
rat TRPM8 = molecular target: T1, rat TRPM8 (Rattus norvegicus, UniProt Q8R455); experiment: In vitro rat TRPM8 functional assay (Ca2+ dye, FDSS, 100 nM icilin); format: cell-based; settings: HEK293 cells transiently transfected with rat TRPM8, read-out: rTRPM8 IC50
T1 construct: the full-length cDNAs encoding human and rat TRPM8 were subcloned; expressed in transfected cells; host or cells: HEK293 (transient, FuGENE 6, pCI-NEO vector)
Method: (§1) For functional expression of TRPM8, the full-length cDNAs encoding human and rat TRPM8 were subcloned into pCl-NEO mammalian expression vectors. The expression constructs were transiently transfected into HEK293 cells according to the FuGENE 6 transfection reagent® (ROCHE) instructions. HEK293 cells were routinely grown as monolayers in Dulbecco's minimum essential medium supplemented with 10% FBS, 1 mM L-glutamine, 100 units/mL penicillin and 100 ug/mL streptomycin. Cells were maintained in 5% CO2 at 37° C. […] Following incubation, plates were inserted into a FDSS instrument, where cells were challenged with a compound of Formula (I) (at varying concentrations) and intracellular Ca^2+ was measured for 5 min prior to the addition of 100 nM icilin. IC50 values for compounds of the present invention were determined from eight-point dose-response studies
(§2) Maximal fluorescence intensity (FI) achieved upon addition of icilin was exported from the FDSS and further analyzed using GraphPad Prism 3.02 (Graph Pad Software Inc., CA, U.S.A.). […] The dose response curves from the average of quadruplicate wells for each data point were analyzed by using nonlinear regression of either sigmoidal dose response or sigmoidal dose response (variable slope). Finally, the IC50 values were calculated with the best-fit dose curve determined by Prism.

male SD rats = experiment: Chronic constriction injury (CCI) model of neuropathic pain, acetone-induced hypersensitivity; format: in vivo; settings: rat; for ED50: po
Method: Through the mesh floor a series of five applications of acetone (0.05 mL/application) was sprayed onto the bottom of the paw using a multidose syringe device. A positive response took the form of an abrupt withdrawal or lifting of the paw. The percentage of positive responses from the five trials represented the individual's overall response that was then averaged over the entire treatment group. […] An ascending dose response relationship (as in Table 10 below) was generated by addition of successive doses of test compound followed by re-assessment of behavior.

canine TRPM8 = molecular target: T2, canine TRPM8 (Canis lupus familiaris, UniProt Q1A7N1); experiment: In vitro canine TRPM8 functional assay (Ca2+-sensitive dye, FLIPR/FDSS, icilin activation); format: cell-based; settings: HEK293 cells expressing canine TRPM8, icilin activation; for inhibition at 0.5 µM: HEK293, 0.5 μM compound, read-out: % I (0.5 μM); for IC50: eight-point dose-response, read-out: IC50
T2 construct: expressed in transfected cells
In short: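 HEK293 cells stably expressing canine TRPM8, loaded with Calcium 3 dye, preincubated with compound for 5 min before icilin at a concentration giving ~80% maximal response. Ca2+ fluorescence by FLIPR or FDSS; basal-subtracted, normalized to % maximal response, quadruplicate wells, sigmoidal fit for EC50/IC50.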

human TRPM8 = molecular target: T3, human TRPM8 (Homo sapiens, UniProt Q7Z2W7); experiment: In vitro human TRPM8 functional assay (Ca2+ dye, FDSS, 100 nM icilin); format: cell-based; settings: HEK293 cells transiently transfected with human TRPM8, read-out: hTRPM8 IC50
T3 construct: the full-length cDNAs encoding human and rat TRPM8 were subcloned; expressed in transfected cells; host or cells: HEK293 (transient, FuGENE 6, pCI-NEO vector)
Method: as §1, §2

T2 sequence (Q1A7N1 1-1104): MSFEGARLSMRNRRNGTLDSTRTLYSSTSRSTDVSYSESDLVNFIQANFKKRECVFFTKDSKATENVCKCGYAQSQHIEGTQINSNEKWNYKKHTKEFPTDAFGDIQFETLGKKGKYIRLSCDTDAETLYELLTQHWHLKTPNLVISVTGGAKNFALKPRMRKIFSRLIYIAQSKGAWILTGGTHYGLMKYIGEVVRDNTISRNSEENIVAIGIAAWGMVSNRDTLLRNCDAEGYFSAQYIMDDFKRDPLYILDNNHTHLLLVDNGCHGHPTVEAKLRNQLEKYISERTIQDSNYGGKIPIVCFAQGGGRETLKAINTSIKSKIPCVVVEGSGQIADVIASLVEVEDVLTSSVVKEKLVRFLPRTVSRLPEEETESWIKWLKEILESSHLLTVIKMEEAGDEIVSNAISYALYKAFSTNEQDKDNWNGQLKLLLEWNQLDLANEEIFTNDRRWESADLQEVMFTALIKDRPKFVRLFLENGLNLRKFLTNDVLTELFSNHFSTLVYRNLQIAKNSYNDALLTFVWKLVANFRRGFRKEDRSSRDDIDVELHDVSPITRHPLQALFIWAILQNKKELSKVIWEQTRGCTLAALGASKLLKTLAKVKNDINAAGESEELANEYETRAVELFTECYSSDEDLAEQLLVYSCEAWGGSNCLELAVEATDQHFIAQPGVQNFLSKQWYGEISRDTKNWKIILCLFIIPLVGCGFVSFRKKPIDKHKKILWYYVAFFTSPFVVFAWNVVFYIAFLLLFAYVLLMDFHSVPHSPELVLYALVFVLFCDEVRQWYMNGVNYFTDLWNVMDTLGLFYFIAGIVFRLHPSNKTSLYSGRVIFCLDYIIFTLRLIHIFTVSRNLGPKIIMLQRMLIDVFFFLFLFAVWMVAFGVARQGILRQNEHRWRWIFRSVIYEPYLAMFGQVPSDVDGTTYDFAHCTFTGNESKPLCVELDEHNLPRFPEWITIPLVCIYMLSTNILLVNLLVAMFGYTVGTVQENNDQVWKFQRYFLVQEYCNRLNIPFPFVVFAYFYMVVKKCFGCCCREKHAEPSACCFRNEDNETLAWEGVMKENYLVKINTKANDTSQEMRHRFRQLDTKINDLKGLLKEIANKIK
T3 sequence (Q7Z2W7 whole entry): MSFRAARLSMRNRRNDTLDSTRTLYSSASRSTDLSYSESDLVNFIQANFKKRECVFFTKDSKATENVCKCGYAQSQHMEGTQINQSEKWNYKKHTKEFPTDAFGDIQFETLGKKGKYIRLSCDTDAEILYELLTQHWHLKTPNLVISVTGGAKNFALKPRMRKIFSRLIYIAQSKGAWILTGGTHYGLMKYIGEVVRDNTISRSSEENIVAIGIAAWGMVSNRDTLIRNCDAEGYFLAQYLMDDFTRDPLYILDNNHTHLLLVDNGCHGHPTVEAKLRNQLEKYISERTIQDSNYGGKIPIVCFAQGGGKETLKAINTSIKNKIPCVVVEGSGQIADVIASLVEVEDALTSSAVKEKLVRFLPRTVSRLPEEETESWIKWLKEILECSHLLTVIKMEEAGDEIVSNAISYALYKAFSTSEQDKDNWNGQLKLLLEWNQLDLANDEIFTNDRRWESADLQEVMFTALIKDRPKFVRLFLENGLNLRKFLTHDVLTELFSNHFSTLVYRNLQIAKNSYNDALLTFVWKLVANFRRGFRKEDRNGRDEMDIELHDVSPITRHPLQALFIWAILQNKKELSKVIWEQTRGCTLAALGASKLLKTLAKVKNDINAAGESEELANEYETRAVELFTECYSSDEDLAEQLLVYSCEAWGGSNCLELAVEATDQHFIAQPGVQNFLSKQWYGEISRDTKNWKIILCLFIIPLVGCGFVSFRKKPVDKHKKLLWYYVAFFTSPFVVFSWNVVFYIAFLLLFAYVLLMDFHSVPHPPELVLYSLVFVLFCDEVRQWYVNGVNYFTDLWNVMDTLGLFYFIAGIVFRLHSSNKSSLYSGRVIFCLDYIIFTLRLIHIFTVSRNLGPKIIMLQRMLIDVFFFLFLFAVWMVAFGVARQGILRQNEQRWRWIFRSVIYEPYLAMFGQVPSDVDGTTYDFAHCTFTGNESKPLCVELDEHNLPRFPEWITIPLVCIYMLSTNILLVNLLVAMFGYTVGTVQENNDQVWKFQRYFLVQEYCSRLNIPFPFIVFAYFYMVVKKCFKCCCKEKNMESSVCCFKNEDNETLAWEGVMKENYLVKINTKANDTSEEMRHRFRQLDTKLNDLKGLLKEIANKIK
T1 sequence (Q8R455 whole entry): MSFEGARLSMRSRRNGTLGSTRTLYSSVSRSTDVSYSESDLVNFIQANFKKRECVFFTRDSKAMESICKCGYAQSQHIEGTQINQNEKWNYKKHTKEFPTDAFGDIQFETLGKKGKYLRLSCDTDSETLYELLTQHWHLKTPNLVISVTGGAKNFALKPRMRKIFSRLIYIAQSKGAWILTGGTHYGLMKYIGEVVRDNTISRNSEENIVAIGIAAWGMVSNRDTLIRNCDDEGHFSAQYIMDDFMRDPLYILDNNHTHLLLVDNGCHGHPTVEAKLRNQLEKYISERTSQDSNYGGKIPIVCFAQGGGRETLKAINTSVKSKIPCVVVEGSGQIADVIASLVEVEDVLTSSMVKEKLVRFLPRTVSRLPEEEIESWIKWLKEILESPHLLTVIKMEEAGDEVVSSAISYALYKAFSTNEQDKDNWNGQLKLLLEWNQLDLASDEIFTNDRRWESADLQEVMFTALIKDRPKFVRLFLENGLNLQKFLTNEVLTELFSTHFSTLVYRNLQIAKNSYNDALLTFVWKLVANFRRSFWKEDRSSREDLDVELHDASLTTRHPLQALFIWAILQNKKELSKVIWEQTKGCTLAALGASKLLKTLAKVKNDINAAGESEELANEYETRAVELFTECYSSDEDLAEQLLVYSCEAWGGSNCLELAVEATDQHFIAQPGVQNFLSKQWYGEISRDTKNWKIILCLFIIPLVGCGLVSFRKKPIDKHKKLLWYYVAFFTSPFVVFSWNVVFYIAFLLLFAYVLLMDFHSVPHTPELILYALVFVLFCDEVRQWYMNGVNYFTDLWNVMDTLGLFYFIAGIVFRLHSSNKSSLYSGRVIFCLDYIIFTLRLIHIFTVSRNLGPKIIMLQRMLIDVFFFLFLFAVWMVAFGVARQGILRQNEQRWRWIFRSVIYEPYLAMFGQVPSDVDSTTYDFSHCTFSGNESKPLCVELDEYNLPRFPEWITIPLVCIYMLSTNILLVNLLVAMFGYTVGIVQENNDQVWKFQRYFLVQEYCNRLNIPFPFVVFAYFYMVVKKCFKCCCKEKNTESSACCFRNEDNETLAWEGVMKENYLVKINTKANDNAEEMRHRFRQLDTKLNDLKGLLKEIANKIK

Row | SMILES | IC50 (rat TRPM8) | ED50 (male SD rats; preRx 1 hr) | % of Allodynic Baseline (male SD rats; 3 mg/kg p.o., preRx 1 hr) | % of Allodynic Baseline (male SD rats; 3 mg/kg p.o., preRx 2 hr) | % of Allodynic Baseline (male SD rats; 10 mg/kg p.o., preRx 1 hr) | % of Allodynic Baseline (male SD rats; 30 mg/kg p.o., preRx 1 hr) | % of Allodynic Baseline (male SD rats; 30 mg/kg p.o., preRx 2 hr) | % of Allodynic Baseline (male SD rats; 100 mg/kg p.o., preRx 1 hr) | % of Allodynic Baseline (male SD rats; 100 mg/kg p.o., preRx 2 hr) | inhibition at 0.5 µM (canine TRPM8) | IC50 (canine TRPM8) | IC50 (human TRPM8) | ED50 (male SD rats; preRx 3 hr) | % of Allodynic Baseline (male SD rats; 3 mg/kg p.o., preRx 3 hr) | % of Allodynic Baseline (male SD rats; 10 mg/kg p.o., preRx 3 hr) | % of Allodynic Baseline (male SD rats; 30 mg/kg i.p., preRx 2 hr) | % of Allodynic Baseline (male SD rats; 30 mg/kg p.o., preRx 3 hr) | % of Allodynic Baseline (male SD rats; 100 mg/kg p.o., preRx 3 hr)
1 | CC(C)OP(=O)(OC(C)C)[C@@H](Cc1ccc(F)c(F)c1)c1sc2ccccc2c1Br [Cpd 234, (S)-[1-(3-Bromo-benzo[b]thiophen-2-yl)-2-(3,4-difluoro-phenyl)-ethyl]-phosphonic acid diisopropyl ester] | 0.053 nM | 14.8 mg/kg | 16.7% | 10.0% | 51.7% | 59.6% | 56.7% | 83.1% | 93.3% | 104% | 29 nM | 0.054 nM |  |  |  |  |  | 
2 | CC(C)OP(=O)(OC(C)C)[C@@H](Cc1ccc(F)c(C(F)(F)F)c1)c1sc2ccccc2c1Br [Cpd 242, (S)-[1-(3-Bromo-benzo[b]thiophen-2-yl)-2-(4-fluoro-3-trifluoromethyl-phenyl)-ethyl]-phosphonic acid diisopropyl ester] | 0.056 nM |  |  |  |  |  |  |  |  | 103% | 9 nM | 0.049 nM | 18 mg/kg | 15.0% | 30.0% | 63.3% | 66.7% | 86.7%
